Test results as given in patent US8658351B2, “Determining liver toxicity of an agent using metabolite biomarkers” (Metabolon, Inc., priority 2009, dated 2014).
Read-outs that look alike come from different tables or passages of the source.

Experiments:
Rats [1] = test: Rat liver toxicant study: liver histopathology; details: for Histopathology (Steatosis) / Histopathology (Cholestasis) / Histopathology (Necrosis): rats, daily single oral dose; for Histopathology (Steatosis) / Histopathology (Cholestasis): day at which change was seen; for Histopathology (Necrosis): day at which change was seen (samples day 2 and day 5)
Method: Rats were treated daily with a single oral dose of a known liver toxicants at low and high doses (as shown in Table 3) as well as with a vehicle control containing none of the toxicant. The hepatotoxic agents listed in Table 3 are known to induce distinct types of liver histopathology as described in Table 4. Plasma, urine, and liver samples were collected at day 2 and day 5 for metabolomic analysis, liver histopathology, and routine clinical chemistry (i.e., aspartate aminotransferase (AST), alanine aminotransferase (ALT), total bilirubin (TBIL), alkaline phosphatase (ALP)).

Rats [2] = test: Rat liver toxicant study: routine clinical chemistry (AST, ALT, TBIL, ALP); type: in vivo; details: day at which change was seen
Method: Rats were treated daily with a single oral dose of a known liver toxicants at low and high doses (as shown in Table 3) as well as with a vehicle control containing none of the toxicant. […] Plasma, urine, and liver samples were collected at day 2 and day 5 for metabolomic analysis, liver histopathology, and routine clinical chemistry (i.e., aspartate aminotransferase (AST), alanine aminotransferase (ALT), total bilirubin (TBIL), alkaline phosphatase (ALP)).

Rats [3] = details: cited from earlier work
humans = details: cited from earlier work
[4] = High dose, agents known to induce distinct types of liver histopathology
[5] = classified as No Rat Tox/Human specific

Q: Which “Histopathology (Steatosis)” value (Rats [1]; high dose) does the source give for `CCSCCC(N)C(=O)O` (racemic) [Ethionine, DL Ethionine] here?
A: Day2~

Q: What about the “Histopathology (Steatosis)” value (Rats [1]; low dose) of the same molecule?
A: Day2

Q: What about the “Clinical Chemistry TBIL” value (Rats [2]; high dose) of the same molecule?
A: Day2~

Q: What about the “Clinical Chemistry TBIL” value (Rats [2]; low dose) of the same molecule?
A: Day2~

Q: And the “Classification of toxic effect on liver histopathology (type of histopathology)” value (shortened to “Classification … (type of histopathology)”) (Rats [3]; [4])?
A: Steatosis

Q: Which “Histopathology (Cholestasis)” value (Rats [1]; high dose) does the source give for `S=C=Nc1cccc2ccccc12` [ANIT, 1-naphthyl isothiocyanate] here?
A: Day2~

Q: And the “Histopathology (Cholestasis)” value (Rats [1]; low dose)?
A: Day5

Q: And the “Clinical Chemistry ALT” value (Rats [2]; high dose)?
A: Day2~

Q: And the “Clinical Chemistry AST” value (Rats [2]; high dose)?
A: Day2~

Q: And the “Clinical Chemistry TBIL” value (Rats [2]; high dose)?
A: Day2~

Q: What about the “Clinical Chemistry ALT” value (Rats [2]; low dose) of the same molecule?
A: Day5

Q: What about the “Clinical Chemistry TBIL” value (Rats [2]; low dose) of the same molecule?
A: Day5

Q: Which “Histopathology (Necrosis)” value (Rats [1]; high dose) does the source give for `CC(=O)Nc1ccc(O)cc1` [Acetaminophen] here?
A: Day2

Q: What about the “Histopathology (Necrosis)” value (Rats [1]; low dose) of the same molecule?
A: Day2

Q: Which “Histopathology (Necrosis)” value (Rats [1]; high dose) does the source give for `O=C(O)COc1nn(Cc2ccccc2)c2ccccc12` [Bendazac] here?
A: Day5

Q: And the “Histopathology (Necrosis)” value (Rats [1]; low dose)?
A: Day5

Q: And the “Clinical Chemistry ALP” value (Rats [2]; high dose)?
A: Day2~

Q: What about the “Clinical Chemistry ALT” value (Rats [2]; high dose) of the same molecule?
A: Day5

Q: And the “Clinical Chemistry ALP” value (Rats [2]; low dose)?
A: Day2

Q: What about the “Clinical Chemistry ALT” value (Rats [2]; low dose) of the same molecule?
A: Day5

Q: And the “Classification … (type of histopathology)” value (Rats [3]; rat, in vivo)?
A: Necrosis

Q: With `NC(=O)N1c2ccccc2C=Cc2ccccc21` [Carbamazepine] as the molecule, how does the “Hepatotoxic changes in rats (histopathology, clinical chemistry)” value (Rats [1]; [5]) read?
A: no hepatotoxic changes

Q: What about the Hepatotoxicity to humans (humans) of the same molecule?
A: known hepatotoxins to humans

Q: And the “Classification … (type of histopathology)” value (Rats [3]; rat, in vivo)?
A: No Histopathology

Q: Which “Histopathology (Steatosis)” value (Rats [1]; high dose) does the source give for `ClC(Cl)(Cl)Cl` [Carbon tetrachloride] here?
A: Day2~

Q: And the “Histopathology (Steatosis)” value (Rats [1]; low dose)?
A: Day2~

Q: And the “Classification … (type of histopathology)” value (Rats [3]; [4])?
A: Steatosis

Q: For `CC(C)C(=O)Nc1ccc([N+](=O)[O-])c(C(F)(F)F)c1` [Flutamide], which “Hepatotoxic changes in rats (histopathology, clinical chemistry)” value (Rats [1]; [5]) is on record?
A: no hepatotoxic changes

Q: And the “Clinical Chemistry TBIL” value (Rats [2]; high dose)?
A: Day2

Q: What about the Hepatotoxicity to humans (humans) of the same molecule?
A: known hepatotoxins to humans

Q: And the “Classification … (type of histopathology)” value (Rats [3]; rat, in vivo)?
A: No Histopathology

Q: Which “Classification … (type of histopathology)” value (Rats [3]; rat, in vivo) does the source give for `CC(=O)N1CCN(c2ccc(OCC3COC(Cn4ccnc4)(c4ccc(Cl)cc4Cl)O3)cc2)CC1` (stereo not shown) [Ketoconazole] here?
A: Phospholipidosis

Q: Which results are given for `CN(C)CCN(Cc1cccs1)c1ccccn1` [Methapyrilene]?
A: Histopathology (Necrosis) (Rats [1]; high dose): Day2~; Histopathology (Necrosis) (Rats [1]; low dose): Day5; Clinical Chemistry ALP (Rats [2]; high dose): Day5; Clinical Chemistry ALT (Rats [2]; high dose): Day2~; Clinical Chemistry AST (Rats [2]; high dose): Day2~; Clinical Chemistry TBIL (Rats [2]; high dose): Day2~; Clinical Chemistry ALT (Rats [2]; low dose): Day5; Clinical Chemistry AST (Rats [2]; low dose): Day5; Clinical Chemistry TBIL (Rats [2]; low dose): Day5; Classification of toxic effect on liver histopathology (type of histopathology) (Rats [3]; rat, in vivo): Necrosis

Q: Which “Hepatotoxic changes in rats (histopathology, clinical chemistry)” value (Rats [1]; rat, in vivo) does the source give for `CS(=O)(=O)Nc1ccc([N+](=O)[O-])cc1Oc1ccccc1` [Nimesulide] here?
A: no hepatotoxic changes

Q: And the “Clinical Chemistry TBIL” value (Rats [2]; high dose)?
A: Day2

Q: And the “Clinical Chemistry ALT” value (Rats [2]; low dose)?
A: Day5

Q: And the “Clinical Chemistry TBIL” value (Rats [2]; low dose)?
A: Day2

Q: Which “Histopathology (Steatosis)” value (Rats [1]; high dose) does the source give for `CN(C)[C@@H]1C(O)=C(C(N)=O)C(=O)[C@@]2(O)C(O)=C3C(=O)c4c(O)cccc4[C@@](C)(O)[C@H]3C[C@@H]12` [Tetracycline] here?
A: Day5

Q: What about the “Histopathology (Steatosis)” value (Rats [1]; low dose) of the same molecule?
A: Day2~

Q: With `Clc1ccccc1CN1CCc2sccc2C1` [Ticlopidine] as the molecule, how does the “Histopathology (Necrosis)” value (Rats [1]; high dose) read?
A: Day5
